Measured values reported in BigSolDB 2.1.

Structure (SMILES): NC(=O)c1ncn([C@@H]2O[C@H](CO)[C@@H](O)[C@H]2O)n1
- solubility (mole fraction) (in DMSO, 293.15 K): 0.0532
- solubility (mole fraction) (in DMSO, 298.15 K): 0.0659
- solubility (mole fraction) (in DMSO, 303.15 K): 0.075
- solubility (mole fraction) (in DMSO, 308.15 K): 0.0821
- solubility (mole fraction) (in DMSO, 313.15 K): 0.095
- solubility (mole fraction) (in DMSO, 318.15 K): 0.11
- solubility (mole fraction) (in DMSO, 323.15 K): 0.125
- solubility (mole fraction) (in acetone, 283.15 K): 3.77e-05
- solubility (mole fraction) (in acetone, 288.15 K): 4.45e-05
- solubility (mole fraction) (in acetone, 293.15 K): 5.43e-05
- solubility (mole fraction) (in acetone, 298.15 K): 6.36e-05
- solubility (mole fraction) (in acetone, 303.15 K): 7.87e-05
- solubility (mole fraction) (in acetone, 308.15 K): 9.41e-05
- solubility (mole fraction) (in acetone, 313.15 K): 0.000114
- solubility (mole fraction) (in acetone, 318.15 K): 0.000139
- solubility (mole fraction) (in acetone, 323.15 K): 0.000153
- solubility (mole fraction) (in ethanol, 283.15 K): 5.95e-05
- solubility (mole fraction) (in ethanol, 288.15 K): 8.55e-05
- solubility (mole fraction) (in ethanol, 293.15 K): 0.000117
- solubility (mole fraction) (in ethanol, 298.15 K): 0.000158
- solubility (mole fraction) (in ethanol, 303.15 K): 0.000209
- solubility (mole fraction) (in ethanol, 308.15 K): 0.000282
- solubility (mole fraction) (in ethanol, 313.15 K): 0.000339
- solubility (mole fraction) (in ethanol, 318.15 K): 0.000435
- solubility (mole fraction) (in ethanol, 323.15 K): 0.000552
- solubility (mole fraction) (in formic acid, 283.15 K): 0.0483
- solubility (mole fraction) (in formic acid, 288.15 K): 0.0533
- solubility (mole fraction) (in formic acid, 293.15 K): 0.0644
- solubility (mole fraction) (in formic acid, 298.15 K): 0.0785
- solubility (mole fraction) (in formic acid, 303.15 K): 0.091
- solubility (mole fraction) (in formic acid, 308.15 K): 0.104
- solubility (mole fraction) (in formic acid, 313.15 K): 0.114
- solubility (mole fraction) (in formic acid, 318.15 K): 0.131
- solubility (mole fraction) (in formic acid, 323.15 K): 0.159
- solubility (mole fraction) (in methanol, 283.15 K): 0.000576
- solubility (mole fraction) (in methanol, 288.15 K): 0.000665
- solubility (mole fraction) (in methanol, 293.15 K): 0.000743
- solubility (mole fraction) (in methanol, 298.15 K): 0.000865
- solubility (mole fraction) (in methanol, 303.15 K): 0.00103
- solubility (mole fraction) (in methanol, 308.15 K): 0.00122
- solubility (mole fraction) (in methanol, 313.15 K): 0.00138
- solubility (mole fraction) (in methanol, 318.15 K): 0.00169
- solubility (mole fraction) (in methanol, 323.15 K): 0.00194
- solubility (mole fraction) (in n-butanol, 283.15 K): 7.44e-05
- solubility (mole fraction) (in n-butanol, 288.15 K): 8.95e-05
- solubility (mole fraction) (in n-butanol, 293.15 K): 0.000117
- solubility (mole fraction) (in n-butanol, 298.15 K): 0.000149
- solubility (mole fraction) (in n-butanol, 303.15 K): 0.000175
- solubility (mole fraction) (in n-butanol, 308.15 K): 0.00021
- solubility (mole fraction) (in n-butanol, 313.15 K): 0.000246
- solubility (mole fraction) (in n-butanol, 318.15 K): 0.000288
- solubility (mole fraction) (in n-butanol, 323.15 K): 0.000362
- solubility (mole fraction) (in n-propanol, 283.15 K): 4.57e-05
- solubility (mole fraction) (in n-propanol, 288.15 K): 5.73e-05
- solubility (mole fraction) (in n-propanol, 293.15 K): 7.99e-05
- solubility (mole fraction) (in n-propanol, 298.15 K): 0.000102
- solubility (mole fraction) (in n-propanol, 303.15 K): 0.000131
- solubility (mole fraction) (in n-propanol, 308.15 K): 0.000161
- solubility (mole fraction) (in n-propanol, 313.15 K): 0.000194
- solubility (mole fraction) (in n-propanol, 318.15 K): 0.000235
- solubility (mole fraction) (in n-propanol, 323.15 K): 0.000295
- solubility (mole fraction) (in sec-butanol, 283.15 K): 7.85e-05
- solubility (mole fraction) (in sec-butanol, 288.15 K): 8.47e-05
- solubility (mole fraction) (in sec-butanol, 293.15 K): 9.62e-05
- solubility (mole fraction) (in sec-butanol, 298.15 K): 0.000104
- solubility (mole fraction) (in sec-butanol, 303.15 K): 0.000122
- solubility (mole fraction) (in sec-butanol, 308.15 K): 0.000135
- solubility (mole fraction) (in sec-butanol, 313.15 K): 0.000161
- solubility (mole fraction) (in sec-butanol, 318.15 K): 0.000196
- solubility (mole fraction) (in sec-butanol, 323.15 K): 0.000224
- solubility (mole fraction) (in water, 283.15 K): 0.00879
- solubility (mole fraction) (in water, 288.15 K): 0.0104
- solubility (mole fraction) (in water, 293.15 K): 0.0123
- solubility (mole fraction) (in water, 298.15 K): 0.0144
- solubility (mole fraction) (in water, 303.15 K): 0.0165
- solubility (mole fraction) (in water, 308.15 K): 0.019
- solubility (mole fraction) (in water, 313.15 K): 0.0225
- solubility (mole fraction) (in water, 318.15 K): 0.0269
- solubility (mole fraction) (in water, 323.15 K): 0.0305
